The numbers were not newly measured in patent US20050032777A1, “Diazacycloalkanes as oxytocin agonists” (priority 2001, published 2005), which cites them from elsewhere.

Where two headings read alike, the source gives them in different places.

The subject of this series is erectile response. The following applies: male rats.

As for `CC[C@H](C)[C@@H]1NC(=O)[C@H](Cc2ccc(O)cc2)NC(=O)[C@@H](N)CSSC[C@@H](C(=O)N2CCC[C@H]2C(=O)N[C@@H](CC(C)C)C(=O)NCC(N)=O)NC(=O)[C@H](CC(N)=O)NC(=O)[C@H](CCC(N)=O)NC1=O` [OT, oxytocin], the erectogenic activity result runs as follows: (i.c.v.) “erectogenic”; (iv., doses up to two orders of magnitude greater than i.c.v.) “erectogenic activity”.
